Experimental data reported in ChEMBL document CHEMBL1201862, “PubChem BioAssay data set” (2004).
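Protocol summary: plate cells (96-well), add compound at 5 concentrations, incubate 48 h, interpolate endpoints linearly. Here, GI50 denotes the concentration required for 50% inhibition of growth.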 Active and inactive are the calls of the source. Rule as the data show it: active = GI50 up to about 1.1 µM and inactive = higher.

Columns and labels:
Test in all cases: NCI anticancer screen, dose series, 48 h
OVCAR-8 = system: OVCAR-8
HOP-62 = system: HOP-62
NCI-H460 = system: NCI-H460
OVCAR-3 = system: OVCAR-3
OVCAR-5 = system: OVCAR-5
LOX IMVI = system: LOX IMVI
U-251 = system: U-251
SK-MEL-2 = system: SK-MEL-2
Hs-578T = system: Hs-578T
HCC 2998 = system: HCC 2998
CAKI-1 = system: CAKI-1
SW-620 = system: SW-620
A498 = system: A498
NCI-H226 = system: NCI-H226
SK-OV-3 = system: SK-OV-3
EKVX = system: EKVX
KM12 = system: KM12
SK-MEL-5 = system: SK-MEL-5
IGROV-1 = system: IGROV-1
UACC-257 = system: UACC-257

Structure (SMILES)	GI50 (OVCAR-8)	GI50 (HOP-62)	GI50 (NCI-H460)	GI50 (OVCAR-3)	GI50 (OVCAR-5)	GI50 (LOX IMVI)	GI50 (U-251)	GI50 (SK-MEL-2)	GI50 (Hs-578T)	GI50 (HCC 2998)	GI50 (CAKI-1)	GI50 (SW-620)	GI50 (A498)	GI50 (NCI-H226)	GI50 (SK-OV-3)	GI50 (EKVX)	GI50 (KM12)	GI50 (SK-MEL-5)	GI50 (IGROV-1)	GI50 (UACC-257)
O=[N+]([O-])c1cccc2nc3ccccc3c(NCCCn3ccnc3[N+](=O)[O-])c12	0.000111 µM (active)	0.000785 µM (active)	< 0.0001 µM (active)	0.00309 µM (active)	0.00017 µM (active)	0.0158 µM (active)	0.000213 µM (active)	0.000235 µM (active)	0.0169 µM (active)	0.000156 µM (active)	0.000385 µM (active)	< 0.0001 µM (active)	0.000227 µM (active)	0.000245 µM (active)	0.0229 µM (active)	0.000298 µM (active)	0.000114 µM (active)	< 0.0001 µM (active)	0.00389 µM (active)	0.0039 µM (active)
COC(=O)c1c(C)cccc1CC1Cc2c(C)cccc2C1=O (stereo not given)	48.3 µM (inactive)	61.9 µM (inactive)	35 µM (inactive)	24.1 µM (inactive)	80.2 µM (inactive)	12 µM (inactive)	40 µM (inactive)	18.7 µM (inactive)	35.3 µM (inactive)	27.9 µM (inactive)	33.4 µM (inactive)	40.6 µM (inactive)	22.6 µM (inactive)	20.6 µM (inactive)	20.2 µM (inactive)	33.7 µM (inactive)	20.1 µM (inactive)	20.7 µM (inactive)	33.3 µM (inactive)	27.8 µM (inactive)
CCOC(=O)c1ccc(-c2cccs2)n1C	> 100 µM (inactive)	> 55.5 µM (inactive)	> 100 µM (inactive)	> 100 µM (inactive)	> 100 µM (inactive)	> 77.8 µM (inactive)	> 100 µM (inactive)	> 100 µM (inactive)	43.4 µM (inactive)	> 100 µM (inactive)	> 100 µM (inactive)	> 80.7 µM (inactive)	> 100 µM (inactive)	> 100 µM (inactive)	> 87.3 µM (inactive)	48.5 µM (inactive)	> 100 µM (inactive)	33.7 µM (inactive)	> 80.7 µM (inactive)	> 79.1 µM (inactive)
CC(=O)N(C)C(C(=O)N1CC(C)CC1C(=O)N(C)C1C(=O)NC(CC(C)C)C(=O)N2CC(C)CC2C(=O)NC(CC(C)C)C(=O)N(C)C(C(C)C)C(=O)N2CCCC2C(=O)N(C)C(CC(C)C)C(=O)NCC(=O)OC1C)C(C)C (stereo not given)	> 100 µM (inactive)	> 100 µM (inactive)	> 100 µM (inactive)	> 100 µM (inactive)	> 100 µM (inactive)	> 100 µM (inactive)	> 100 µM (inactive)	> 100 µM (inactive)	> 100 µM (inactive)	> 100 µM (inactive)	> 100 µM (inactive)	> 100 µM (inactive)	> 100 µM (inactive)	> 100 µM (inactive)	> 100 µM (inactive)	> 100 µM (inactive)	> 100 µM (inactive)	> 100 µM (inactive)	72.1 µM (inactive)	> 100 µM (inactive)
O=C(/C=C/c1ccco1)CC(=O)/C=C/c1ccco1	17.7 µM (inactive)	11.7 µM (inactive)	14.4 µM (inactive)	> 10 µM (inactive)	16.9 µM (inactive)	4.99 µM (inactive)	13.7 µM (inactive)	14.3 µM (inactive)	16.4 µM (inactive)	12.8 µM (inactive)	14.7 µM (inactive)	10.9 µM (inactive)	20.9 µM (inactive)	> 10 µM (inactive)	> 10 µM (inactive)	20.5 µM (inactive)	28.8 µM (inactive)	12.3 µM (inactive)	16.8 µM (inactive)	37.8 µM (inactive)
Cc1c(C(=O)O)n2cnnc2c2ccccc12	> 100 µM (inactive)	> 100 µM (inactive)	> 100 µM (inactive)	> 100 µM (inactive)	> 100 µM (inactive)	> 100 µM (inactive)	> 100 µM (inactive)	> 100 µM (inactive)	> 100 µM (inactive)	> 100 µM (inactive)	> 100 µM (inactive)	> 100 µM (inactive)	> 100 µM (inactive)	> 100 µM (inactive)	> 100 µM (inactive)	> 100 µM (inactive)	> 100 µM (inactive)	> 100 µM (inactive)	> 100 µM (inactive)	> 100 µM (inactive)
COc1ccc(C2=CN3CCC[C@H]3C=C2c2cc(O)c(OC)c(OC)c2)cc1OC	0.00377 µM (active)	0.0065 µM (active)	0.00316 µM (active)	0.00615 µM (active)	0.00561 µM (active)	0.00163 µM (active)	0.00416 µM (active)	0.00314 µM (active)	0.00539 µM (active)	0.00482 µM (active)	0.00382 µM (active)	0.00337 µM (active)	0.005 µM (active)	0.00376 µM (active)	0.00564 µM (active)	0.00608 µM (active)	0.00337 µM (active)	0.0038 µM (active)	0.0104 µM (active)	0.00646 µM (active)
